PMC11203799, “Determining the Affinity and Kinetics of Small Molecule Inhibitors of Galectin-1 Using Surface Plasmon Resonance” (International Journal of Molecular Sciences, 2024)

Columns and labels:
[1] = molecular target: T1, mouse galectin-1 (Mus musculus, UniProt P16045); test: SPR binding assay, mouse galectin-1
T1 construct: mouse galectin-1 (residues M1-E135); His-tag; made in house; host or cells: E. coli BL21
Protocol: (§1) For SPR studies, His-tagged proteins were expressed in E. coli strain BL21 (human galectin-1 (residues M1-D135) and mouse galectin-1 (residues M1-E135)) and purified as previously described. SDS-PAGE and mass spectrometry were used to confirm protein purity with all proteins stored at −80 °C until use. Human and mouse proteins for FP were produced as previously described.
(§2) The SPR method previously described for galectin-3 proteins was used here for galectin-1 [10]. Briefly, CM3 sensor chip surfaces (Cytiva, Marlborough, MA, USA) were pre-primed and equilibrated in immobilization buffer (10 mM HEPES, 150 mM NaCl (pH 7.4)) using an Amine Coupling Kit (Cytiva, Marlborough, MA, USA) prior to the immobilization of protein (injected at 10 µg/mL in PBS at pH 6.0). […] Chips surfaces were blocked with ethanolamine HCl (pH 8.5) for 420 s upon reaching the immobilization required. Then, EDC/NHS and ethanolamine were used to treat blank surfaces that were protein-free. Running buffer (RB) was used to dilute compounds (10 mM HEPES, 150 mM NaCl, 1 mM DTT, 0.05% Tween 20, 5% DMSO (pH 7.4)), pre-filtered, degassed, and then injected for 1 min at a flow rate of 30 μL/min. […] Following each cycle, the chip surface was auto-regenerated and aided by fast compound off-rates, and a further wash set was completed in RB. […]

[2] = molecular target: T2, human galectin-1 (Homo sapiens, UniProt P09382); test: SPR binding assay, human galectin-1
T2 construct: human galectin-1 (residues M1-D135); His-tag; made in house; host or cells: E. coli BL21
Protocol: as §1, §2

[3] = molecular target: T2, human galectin-1; test: Fluorescence polarization (FP) binding assay, galectin-1; details: human vs mouse galectin-1
Protocol: as §1

T2 sequence (P09382 whole entry, the tested form may be a part): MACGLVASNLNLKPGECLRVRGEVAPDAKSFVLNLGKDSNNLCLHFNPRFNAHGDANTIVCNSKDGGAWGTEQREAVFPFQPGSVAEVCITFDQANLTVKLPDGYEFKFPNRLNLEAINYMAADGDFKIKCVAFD
T1 sequence (P16045 whole entry, the tested form may be a part): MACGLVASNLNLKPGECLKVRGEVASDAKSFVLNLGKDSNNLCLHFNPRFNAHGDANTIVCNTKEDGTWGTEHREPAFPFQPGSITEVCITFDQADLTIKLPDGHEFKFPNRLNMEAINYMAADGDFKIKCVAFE

Row | SMILES | Kd ([1]; koff/kon, 1:1 Langmuir model, 25 °C, read-out: kinetic KD in SPR) | Fold KD Differences SPR Human vs. Mouse Gal-1 ([2]; SPR assay, human vs mouse galectin-1) | Fold KD Differences Human Gal-1 FP vs. SPR ([2]; human galectin-1, FP vs SPR assay format) | Fold KD Differences Mouse Gal-1 FP vs. SPR ([1]; FP vs SPR assay format) | Fold KD Differences FP Human vs. Mouse Gal-1 [3]
1 | OC[C@H]1O[C@@H](S[C@@H]2O[C@H](CO)[C@H](O)[C@H](n3cc(-c4cccc(F)c4)nn3)[C@H]2O)[C@H](O)[C@@H](n2cc(-c3cccc(F)c3)nn2)[C@H]1O [Compound 1, GB0139] | 0.131 µM | – | – | – | –
2 | OC[C@H]1O[C@H](Sc2cc(Cl)c(F)c(Cl)c2)[C@H](O)[C@@H](n2cc(-c3nccs3)nn2)[C@H]1O [Compound 4, GB1490] | – | 0.6 fold | 1.8 fold | 1.6 fold | 0.6 fold
